# Assay results as given in patent US4619925A, “3-Propenyl cephalosporin derivatives” (priority 1985, dated 1986).
# Tests used:
# Type in all cases: cell-based
# K. pneumoniae A20345 = assay: MIC, agar dilution technique (Mueller-Hinton Agar); details: Klebsiella pneumoniae, Gn-Ib, ampicillin and cephalothin resistant, read-out: Minimum Inhibitory Concentration
# Source text: (§1) Each of these groups of organisms is constituted of five individual strains of microorganism. The Gp-Ia organisms are Gram-positive staphylococci which are sensitive to penicillin. The Gp-Ib organisms are Gram-positive staphylococci which are resistant to penicillin and produce penicillinase. The Gn-Ia organisms are Gram-negative bacteria which are sensitive to ampicillin and cephalothin. The Gn-Ib organisms are Gram-negative bacteria which are resistant to ampicillin and cephalothin.
# S. aureus A9497 = assay: MIC, agar dilution technique (Mueller-Hinton Agar); details: Staphylococcus aureus, Gp-Ia, penicillin sensitive, read-out: Minimum Inhibitory Concentration
# Source text: as §1
# S. aureus A9602 = assay: MIC, agar dilution technique (Mueller-Hinton Agar); details: Staphylococcus aureus; S. aureus A9602; Gp-Ib, penicillin resistant; read-out: Minimum Inhibitory Concentration
# Source text: as §1
# P. mirabilis A9900 = assay: MIC, agar dilution technique (Mueller-Hinton Agar); details: Proteus mirabilis, A9900, read-out: Minimum Inhibitory Concentration
# Source text: as §1
# E. coli A20341-1 = assay: MIC, agar dilution technique (Mueller-Hinton Agar); details: Escherichia coli, A203411, read-out: Minimum Inhibitory Concentration
# Source text: as §1
# S. aureus A9534 = assay: MIC, agar dilution technique (Mueller-Hinton Agar); details: Staphylococcus aureus, Gp-Ia, penicillin sensitive, read-out: Minimum Inhibitory Concentration
# Source text: as §1
# S. aureus A15092 = assay: MIC, agar dilution technique (Mueller-Hinton Agar); details: Staphylococcus aureus, Gp-Ib, penicillin resistant, read-out: Minimum Inhibitory Concentration
# Source text: as §1
# E. coli A9660 = assay: MIC, agar dilution technique (Mueller-Hinton Agar); details: Escherichia coli, A9660, read-out: Minimum Inhibitory Concentration
# Source text: as §1
# E. coli Juhl = assay: MIC, agar dilution technique (Mueller-Hinton Agar); details: Escherichia coli, read-out: Minimum Inhibitory Concentration
# Source text: as §1
# S. aureus A9601 = assay: MIC, agar dilution technique (Mueller-Hinton Agar); details: Staphylococcus aureus, A9601, read-out: Minimum Inhibitory Concentration
# Source text: as §1
# S. aureus BX-1633-2 = assay: MIC, agar dilution technique (Mueller-Hinton Agar); details: Staphylococcus aureus, BX16332, read-out: Minimum Inhibitory Concentration
# Source text: as §1
# K. pneumoniae A20346 = assay: MIC, agar dilution technique (Mueller-Hinton Agar); details: Klebsiella pneumoniae, A20346, read-out: Minimum Inhibitory Concentration
# Source text: as §1
# P. mirabilis A9554 = assay: MIC, agar dilution technique (Mueller-Hinton Agar); details: Proteus mirabilis, A9554, read-out: Minimum Inhibitory Concentration
# Source text: as §1
# E. coli A15148 = assay: MIC, agar dilution technique (Mueller-Hinton Agar); details: Escherichia coli; E. coli A15148; Gn-Ib, ampicillin and cephalothin resistant; read-out: Minimum Inhibitory Concentration
# Source text: as §1
# K. pneumoniae D11 = assay: MIC, agar dilution technique (Mueller-Hinton Agar); details: Klebsiella pneumoniae, D11, read-out: Minimum Inhibitory Concentration
# Source text: as §1
# S. aureus Terajima = assay: MIC, agar dilution technique (Mueller-Hinton Agar); details: Staphylococcus aureus, Gp-Ia, penicillin sensitive, read-out: Minimum Inhibitory Concentration
# Source text: as §1
# S. aureus Russell = assay: MIC, agar dilution technique (Mueller-Hinton Agar); details: Staphylococcus aureus; S. aureus Russell; Gp-Ib, penicillin resistant; read-out: Minimum Inhibitory Concentration
# Source text: as §1
# E coli RGN-823 = assay: MIC, agar dilution technique (Mueller-Hinton Agar); details: Escherichia coli, RGN823, Gn-Ib, ampicillin and cephalothin resistant, read-out: Minimum Inhibitory Concentration
# Source text: as §1
# S. aureus No. 193 = assay: MIC, agar dilution technique (Mueller-Hinton Agar); details: Staphylococcus aureus, Gp-Ib, penicillin resistant, read-out: Minimum Inhibitory Concentration
# Source text: as §1
# S. aureus Smith = assay: MIC, agar dilution technique (Mueller-Hinton Agar); details: Staphylococcus aureus, Gp-Ia, penicillin sensitive, read-out: Minimum Inhibitory Concentration
# Source text: as §1
# H. influenzae A22481 = assay: In vitro activity against fastidious bacteria; details: Haemophilus influenzae, ampicillin-resistant (ABPC-R)
# Source text: (§2) Table 5 contains comparative data for in vitro antibacterial activity against fastidious bacteria.
# S. pneumoniae Type III = assay: In vitro activity against fastidious bacteria; details: Streptococcus pneumoniae
# Source text: as §2
# H. influenzae A22482 = assay: In vitro activity against fastidious bacteria; details: Haemophilus influenzae; H. influenzae A22482; ampicillin-sensitive (ABPC-S); read-out: MIC
# Source text: as §2
# S. pneumoniae A20759 = assay: In vitro activity against fastidious bacteria; details: Streptococcus pneumoniae, A20759
# Source text: as §2
# N. meningitidis A21497 = assay: In vitro activity against fastidious bacteria; details: Neisseria meningitidis, A21497
# Source text: as §2
# S. pyogenes Dick = assay: In vitro activity against fastidious bacteria; details: Streptococcus pyogenes
# Source text: as §2
# N. meningitidis A20048 = assay: In vitro activity against fastidious bacteria; details: Neisseria meningitidis, A20048
# Source text: as §2
# S. pyogenes A20065 = assay: In vitro activity against fastidious bacteria; details: Streptococcus pyogenes, A20065
# Source text: as §2
# N. meningitidis A21487 = assay: In vitro activity against fastidious bacteria; details: Neisseria meningitidis, A21487
# Source text: as §2
# H. influenzae A22491 = assay: In vitro activity against fastidious bacteria; details: Haemophilus influenzae, ampicillin-resistant (ABPC-R)
# Source text: as §2
# S. pyogenes A9604 = assay: In vitro activity against fastidious bacteria; details: Streptococcus pyogenes, A9604
# Source text: as §2
# N. meningitidis A20049 = assay: In vitro activity against fastidious bacteria; details: Neisseria meningitidis, A20049
# Source text: as §2
# S. pneumoniae A15069 = assay: In vitro activity against fastidious bacteria; details: Streptococcus pneumoniae, A15069
# Source text: as §2
# N. meningitidis A21495 = assay: In vitro activity against fastidious bacteria; details: Neisseria meningitidis, A21495
# Source text: as §2
# S. pyogenes A20201 = assay: In vitro activity against fastidious bacteria; details: Streptococcus pyogenes, A20201
# Source text: as §2
# H. influenzae A22157 = assay: In vitro activity against fastidious bacteria; details: Haemophilus influenzae, ampicillin-resistant (ABPC-R)
# Source text: as §2
# S. pneumoniae Type I = assay: In vitro activity against fastidious bacteria; details: Streptococcus pneumoniae
# Source text: as §2
# H. influenzae A9833 = assay: In vitro activity against fastidious bacteria; details: Haemophilus influenzae; H. influenzae A9833; ampicillin-sensitive (ABPC-S); read-out: MIC
# Source text: as §2
# S. pyogenes s-23 = assay: In vitro activity against fastidious bacteria; details: Streptococcus pyogenes, S23
# Source text: as §2
# S. pyogenes A15040 = assay: In vitro activity against fastidious bacteria; details: Streptococcus pyogenes, A15040
# Source text: as §2
# H. influenzae A9729 = assay: In vitro activity against fastidious bacteria; details: Haemophilus influenzae; H. influenzae A9729; ampicillin-sensitive (ABPC-S); read-out: MIC
# Source text: as §2
# H. influenzae A22483 = assay: In vitro activity against fastidious bacteria; details: Haemophilus influenzae; H. influenzae A22483; ampicillin-sensitive (ABPC-S); read-out: MIC
# Source text: as §2
smiles,measurement,setting,value
CC1=C(C(=O)O)N2C(=O)[C@@H](NC(=O)[C@H](N)c3ccccc3)[C@H]2SC1 [cephalexin],MIC,K. pneumoniae A20345,6.3 µg/mL
same,MIC,S. aureus A9497,1.6 µg/mL
same,MIC,S. aureus A9602,3.1 µg/mL
same,MIC,P. mirabilis A9900,12.5 µg/mL
same,MIC,E. coli A20341-1,6.3 µg/mL
same,MIC,S. aureus A9534,1.6 µg/mL
same,MIC,S. aureus A15092,6.3 µg/mL
same,MIC,E. coli A9660,6.3 µg/mL
same,MIC,E. coli Juhl,6.3 µg/mL
same,MIC,S. aureus A9601,1.6 µg/mL
same,MIC,S. aureus BX-1633-2,6.3 µg/mL
same,MIC,K. pneumoniae A20346,6.3 µg/mL
same,MIC,P. mirabilis A9554,12.5 µg/mL
same,MIC,E. coli A15148,100 µg/mL
same,MIC,K. pneumoniae D11,6.3 µg/mL
same,MIC,S. aureus Terajima,1.6 µg/mL
same,MIC,S. aureus Russell,3.1 µg/mL
same,MIC,E coli RGN-823,12.5 µg/mL
same,MIC,S. aureus No. 193,6.3 µg/mL
same,MIC,S. aureus Smith,1.6 µg/mL
same,MIC,H. influenzae A22481,3.1 µg/mL
same,MIC,S. pneumoniae Type III,3.1 µg/mL
same,MIC,H. influenzae A22482,3.1 µg/mL
same,MIC,S. pneumoniae A20759,3.1 µg/mL
same,MIC,N. meningitidis A21497,3.1 µg/mL
same,MIC,S. pyogenes Dick,0.8 µg/mL
same,MIC,N. meningitidis A20048,3.1 µg/mL
same,MIC,S. pyogenes A20065,0.8 µg/mL
same,MIC,N. meningitidis A21487,3.1 µg/mL
same,MIC,H. influenzae A22491,3.1 µg/mL
same,MIC,S. pyogenes A9604,0.8 µg/mL
same,MIC,N. meningitidis A20049,3.1 µg/mL
same,MIC,S. pneumoniae A15069,3.1 µg/mL
same,MIC,N. meningitidis A21495,3.1 µg/mL
same,MIC,S. pyogenes A20201,0.8 µg/mL
same,MIC,H. influenzae A22157,3.1 µg/mL
same,MIC,S. pneumoniae Type I,3.1 µg/mL
same,MIC,H. influenzae A9833,3.1 µg/mL
same,MIC,S. pyogenes s-23,0.8 µg/mL
same,MIC,S. pyogenes A15040,0.8 µg/mL
same,MIC,H. influenzae A9729,3.1 µg/mL
same,MIC,H. influenzae A22483,3.1 µg/mL
